Each structure is given as a SMILES string. Bounds are passed on as bounds.

Common to all, as to type: cell-based
One data set deals with MDA-MB-231. The experiment in a line: cells. The note with it: Homo sapiens, 120 h; MDA-MB-231 cells, five days co-incubation; read-out: IC50 (nM) MDA-MB-231. The protocol:
(§1) MDA-MB-231, OV90, and NCI-N87 cells at defined cell densities (1,500 cells per well, 80 µL volume) were seeded into 96-well plates. The cells were cultured overnight in a constant-temperature incubator (37°C, 5% CO2). Ecteinascidin derivative solutions at a maximum concentration of 2 mM were first prepared in DMSO, and serial 1:4 gradient dilutions were performed. 1 µL of each DMSO-prepared dilution was added to 99 µL of PBS containing 10% FBS per well and mixed thoroughly. The diluted solutions (2 µL of diluted solution and 18 µL of PBS containing 10% FBS per well) were then co-incubated with the cells (37°C, 5% CO2) for five days, after which CellTiter-Glo reagent (40 µL per well) was added, and […] values were measured using an i3x microplate reader.

The subject of another data set is NCI-N87. The experiment in a line: cells. The note with it: Homo sapiens, 120 h; NCI-N87 cells, five days co-incubation; read-out: IC50 (nM) NCI-N87. The protocol: as §1
The subject of a further data set is OV90. The experiment in a line: cells. The note with it: Homo sapiens, OV-90, 120 h; OV90 cells, five days co-incubation; read-out: IC50 (nM) OV90. The protocol: as §1
For data set [1], the system named is MDA-MB-231, OV90, and NCI-N87 cells. Nature of the data set: Tumor cell proliferation inhibition assay of novel ecteinascidin derivatives, summary over the three cell lines. The conditions noted are these: compared with trabectedin and lurbinectedin. The protocol: as §1, with “The” for “MDA-MB-231, OV90, and NCI-N87 cells at defined cell densities (1,500 cells per well, 80 µL volume) were seeded into 96-well plates. The”

For orientation: IC50 means the concentration needed to halve the response being measured. In the case of `COc1cc2c(cc1N)C(C)(C)CN[C@]21CS[C@@H]2c3c(OC(C)=O)c(C)c4c(c3[C@H](COC1=O)N1[C@@H]2[C@H]2c3c(cc(C)c(OC)c3O)C[C@@H]([C@@H]1C#N)N2C)OCO4` [P19], the IC50 in the data set on MDA-MB-231, in the data set with NCI-N87 and in the data set with OV90 was less than 1 nM throughout. Moreover, in data set [1], the in-vitro cytotoxic activities result was “superior to or comparable to those of trabectedin and lurbinectedin”.

In the case of `COc1cc2c(cc1N)C(N(C)C)CN[C@]21CS[C@@H]2c3c(OC(C)=O)c(C)c4c(c3[C@H](COC1=O)N1[C@@H]2[C@H]2c3c(cc(C)c(OC)c3O)C[C@@H]([C@@H]1C#N)N2C)OCO4` (some centres unmarked) [P30], the IC50 with MDA-MB-231, with NCI-N87 and with OV90 was less than 1 nM each time. The in-vitro cytotoxic activities result in data set [1] was “superior to or comparable to those of trabectedin and lurbinectedin”.

On to `COc1cc2c(cc1N)C1(CC1)CN[C@]21CS[C@@H]2c3c(OC(C)=O)c(C)c4c(c3[C@H](COC1=O)N1[C@@H]2[C@H]2c3c(cc(C)c(OC)c3O)C[C@@H]([C@@H]1C#N)N2C)OCO4` [P36], for which the IC50 in the data set with MDA-MB-231, with NCI-N87 and with OV90 was less than 1 nM throughout. The in-vitro cytotoxic activities entry in data set [1] was “superior to or comparable to those of trabectedin and lurbinectedin”.

For `COc1cc2c(cc1N)C(C)(C)CN[C@]21CS[C@@H]2c3c(OC(C)=O)c(C)c4c(c3[C@H](COC1=O)N1[C@@H]2[C@H]2c3c(cc(C)c(OC)c3O)C[C@@H]([C@@H]1O)N2C)OCO4` [P52], the 50% inhibitory concentration (IC50) in the data set with MDA-MB-231, with NCI-N87 and with OV90 was less than 1 nM in each case. Besides, the in-vitro cytotoxic activities entry in data set [1] is “superior to or comparable to those of trabectedin and lurbinectedin”.

As to `COc1cc2c(cc1NC(=O)C(O)C1CC1)CCN[C@]21CS[C@@H]2c3c(OC(C)=O)c(C)c4c(c3[C@H](COC1=O)N1[C@@H]2[C@H]2c3c(cc(C)c(OC)c3O)C[C@@H]([C@@H]1C#N)N2C)OCO4` (some centres unmarked) [P58], the IC50 with MDA-MB-231, in the data set with NCI-N87 and with OV90 was less than 1 nM in each case. Further, the in-vitro cytotoxic activities result in data set [1] was “superior to or comparable to those of trabectedin and lurbinectedin”.

With `COc1cc2c(cc1NC(=O)[C@H]1C[C@@H](O)C1)CCN[C@]21CS[C@@H]2c3c(OC(C)=O)c(C)c4c(c3[C@H](COC1=O)N1[C@@H]2[C@H]2c3c(cc(C)c(OC)c3O)C[C@@H]([C@@H]1C#N)N2C)OCO4` [P74], the IC50 in the data set with MDA-MB-231, in the data set with NCI-N87 and in the data set on OV90 was less than 1 nM each time. Besides, the in-vitro cytotoxic activities entry in data set [1] was “superior to or comparable to those of trabectedin and lurbinectedin”.

As to `COc1cc2c(cc1NC(=O)[C@H]1C[C@H](O)C1)CCN[C@]21CS[C@@H]2c3c(OC(C)=O)c(C)c4c(c3[C@H](COC1=O)N1[C@@H]2[C@H]2c3c(cc(C)c(OC)c3O)C[C@@H]([C@@H]1C#N)N2C)OCO4` [P75], the IC50 with MDA-MB-231, with NCI-N87 and in the data set on OV90 was less than 1 nM throughout. For the same molecule, the in-vitro cytotoxic activities entry in data set [1] was “superior to or comparable to those of trabectedin and lurbinectedin”.

In the case of `COc1c(C)cc2c(c1O)[C@@H]1[C@@H]3[C@@H]4SC[C@]5(NCCc6cc(NC(=O)CO)c(F)cc65)C(=O)OC[C@@H](c5c6c(c(C)c(OC(C)=O)c54)OCO6)N3[C@@H](C#N)[C@H](C2)N1C` [P85], the half-maximal inhibitory concentration (IC50) with MDA-MB-231, with NCI-N87 and in the data set on OV90 was less than 1 nM each time. In addition, the in-vitro cytotoxic activities result in data set [1] was “superior to or comparable to those of trabectedin and lurbinectedin”.

In the case of `COc1cc2c(cc1NC(=O)CO)C(C)(C)CN[C@]21CS[C@@H]2c3c(OC(C)=O)c(C)c4c(c3[C@H](COC1=O)N1[C@@H]2[C@H]2c3c(cc(C)c(OC)c3O)C[C@@H]([C@@H]1C#N)N2C)OCO4` [P96], the IC50 in the data set with MDA-MB-231, in the data set on NCI-N87 and with OV90 was less than 1 nM in each case. Also, the in-vitro cytotoxic activities result in data set [1] is “superior to or comparable to those of trabectedin and lurbinectedin”.

Regarding `COc1c(C)cc2c(c1O)[C@@H]1[C@@H]3[C@@H]4SC[C@]5(NCCc6c5ccc(N)c6OC)C(=O)OC[C@@H](c5c6c(c(C)c(OC(C)=O)c54)OCO6)N3[C@@H](C#N)[C@H](C2)N1C` [P166], the IC50 in the data set with MDA-MB-231, in the data set on NCI-N87 and in the data set on OV90 was less than 1 nM each time. In addition, in data set [1], the in-vitro cytotoxic activities result is “superior to or comparable to those of trabectedin and lurbinectedin”.

In the case of `COc1c(C)cc2c(c1O)[C@@H]1[C@@H]3[C@@H]4SC[C@]5(NCCc6c5ccc(NC(=O)CO)c6OC)C(=O)OC[C@@H](c5c6c(c(C)c(OC(C)=O)c54)OCO6)N3[C@@H](C#N)[C@H](C2)N1C` [P170], the IC50 in the data set with MDA-MB-231, in the data set with NCI-N87 and in the data set with OV90 was less than 1 nM in each case. Also, the in-vitro cytotoxic activities result in data set [1] is “superior to or comparable to those of trabectedin and lurbinectedin”.

With `COc1c(C)cc2c(c1O)[C@@H]1[C@@H]3[C@@H]4SC[C@]5(NCCc6cc(N)c(C)cc65)C(=O)OC[C@@H](c5c6c(c(C)c(OC(C)=O)c54)OCO6)N3[C@@H](C#N)[C@H](C2)N1C` [P172], the IC50 in the data set on MDA-MB-231, in the data set on NCI-N87 and in the data set with OV90 was less than 1 nM in each case. Also, in data set [1], the in-vitro cytotoxic activities result is “superior to or comparable to those of trabectedin and lurbinectedin”.

As to `COc1cc(N)cc2c1[C@@]1(CS[C@@H]3c4c(OC(C)=O)c(C)c5c(c4[C@H](COC1=O)N1[C@@H]3[C@H]3c4c(cc(C)c(OC)c4O)C[C@@H]([C@@H]1C#N)N3C)OCO5)NCC2` [T1], the IC50 in the data set on MDA-MB-231, in the data set with NCI-N87 and with OV90 was less than 1 nM each time. Also, the in-vitro cytotoxic activities entry in data set [1] was “superior to or comparable to those of trabectedin and lurbinectedin”.

With `COc1c(C)cc2c(c1O)[C@@H]1[C@@H]3[C@@H]4SC[C@]5(NCC(C)(C)c6cc(N)c(F)cc65)C(=O)OC[C@@H](c5c6c(c(C)c(OC(C)=O)c54)OCO6)N3[C@@H](C#N)[C@H](C2)N1C` [T3], the IC50 with MDA-MB-231, with NCI-N87 and with OV90 was less than 1 nM throughout. The in-vitro cytotoxic activities entry in data set [1] is “superior to or comparable to those of trabectedin and lurbinectedin”.

`COc1c(C)cc2c(c1O)[C@@H]1[C@@H]3[C@@H]4SC[C@]5(NCCc6cc(NC(=O)C7(O)CC7)c(F)cc65)C(=O)OC[C@@H](c5c6c(c(C)c(OC(C)=O)c54)OCO6)N3[C@@H](C#N)[C@H](C2)N1C` [T4]: the IC50 in the data set on MDA-MB-231, in the data set on NCI-N87 and in the data set with OV90 was less than 1 nM each time. Also, the in-vitro cytotoxic activities result in data set [1] was “superior to or comparable to those of trabectedin and lurbinectedin”.

With `COc1cc2c(cc1N)C(OC)CN[C@]21CS[C@@H]2c3c(OC(C)=O)c(C)c4c(c3[C@H](COC1=O)N1[C@@H]2[C@H]2c3c(cc(C)c(OC)c3O)C[C@@H]([C@@H]1C#N)N2C)OCO4` (some centres unmarked) [T10], the IC50 with MDA-MB-231, with NCI-N87 and in the data set with OV90 was less than 1 nM in each case. The in-vitro cytotoxic activities result in data set [1] is “superior to or comparable to those of trabectedin and lurbinectedin”.

In the case of `COc1cc2c(cc1N(C)C(=O)CO)CCN[C@]21CS[C@@H]2c3c(OC(C)=O)c(C)c4c(c3[C@H](COC1=O)N1[C@@H]2[C@H]2c3c(cc(C)c(OC)c3O)C[C@@H]([C@@H]1C#N)N2C)OCO4` [T17], the IC50 with MDA-MB-231, in the data set on NCI-N87 and with OV90 was less than 1 nM each time. Also, the in-vitro cytotoxic activities entry in data set [1] was “superior to or comparable to those of trabectedin and lurbinectedin”.

Values taken from patent EP4778932A1 (priority 2023, dated 2025).
